# Measurements from patent US10413632B2, “Cement products and methods of making and using the same” (Pioneer Surgical Technology, Inc., priority 2007, dated 2019).
# Description: The side chain amino groups of certain amino acid can serve as nucleophiles for the Michael addition to enones. Generally, amino acids are flaky or crystalline solids at room temperature, thus, they should be dissolved in a liquid to effectively participate in the set reaction.
Structure (SMILES),solubility (w/w) in PEI,solubility (w/w) in DAB
"Nc1nc(N)c2nc[nH]c2n1 [DAP, diaminopurine]",18.8%,
"Nc1cc(O)nc(N)n1 [DAHP, 2,4-diamino-6-hydroxypyrimidine]",13.8%,
"N[C@@H](Cc1c[nH]c2ccccc12)C(=O)O [TRP, L-Tryptophan]",46.46%,29.4%
"N[C@@H](Cc1ccccc1)C(=O)O [PHE, L-phenylalanine]",61.24%,28%
"NCCCC[C@H](N)C(=O)O [LYS, L-Lysine]",,16.1%
"N[C@@H](CS)C(=O)O [CYS, L-cysteine]",18.2%,19.5%
